Reference: ChEMBL document CHEMBL5252609, “Design, synthesis, and antitumor evaluation of morpholine substituted bisnaphthalimides as DNA targeting agents” (Bioorg Med Chem Lett, 2023)
pIC50: −log10 of the molar value. Active and inactive are the calls of the source. No cut-off for these calls is given here.

Tests used:
T-24 = experiment: Antiproliferative activity against human T24 cells assessed as cell growth inhibition by MTT assay; assay type: functional, cell-based
CNE-2 [1] = experiment: Downregulation of cyclin B level in human CNE-2 cells measured after 48 hrs by Western blot analysis; assay type: functional, cell-based; settings: dose <= 2.0 µM
CNE-2 [2] = experiment: Induction of cell cycle arrest in human CNE-2 cells assessed as accumulation of cells at S phase at 2 uM measured after 48 hrs by flow cytometry analysis (Rvb= 19.83%); assay type: functional
CNE-2 [3] = experiment: Induction of apoptosis in human CNE-2 cells assessed as necrotic cells at 2 uM measured after 24 hrs by annexin-V-FITC and PI staining based flow cytometry analysis (reference value: 0.959%); assay type: functional
CNE-2 [4] = experiment: Induction of ROS generation in human CNE-2 cells at 0.5 to 2 uM incubated for 24 hrs by DCFH2-DA probe based analysis; assay type: functional, cell-based; settings: dose 0.5-2 µM
A2780 = experiment: Antiproliferative activity against human A2780 cells assessed as cell growth inhibition by MTT assay; assay type: functional, cell-based
[5] = molecular target: T1, DNA topoisomerase 1 (Homo sapiens) (UniProt P11387); experiment: Inhibition of human DNA topoisomerase 1 assessed as reduction in pBR322 DNA relaxation at 10 to 20 uM by gel electrophoresis method; settings: dose 10-20 µM
T1 sequence (whole entry): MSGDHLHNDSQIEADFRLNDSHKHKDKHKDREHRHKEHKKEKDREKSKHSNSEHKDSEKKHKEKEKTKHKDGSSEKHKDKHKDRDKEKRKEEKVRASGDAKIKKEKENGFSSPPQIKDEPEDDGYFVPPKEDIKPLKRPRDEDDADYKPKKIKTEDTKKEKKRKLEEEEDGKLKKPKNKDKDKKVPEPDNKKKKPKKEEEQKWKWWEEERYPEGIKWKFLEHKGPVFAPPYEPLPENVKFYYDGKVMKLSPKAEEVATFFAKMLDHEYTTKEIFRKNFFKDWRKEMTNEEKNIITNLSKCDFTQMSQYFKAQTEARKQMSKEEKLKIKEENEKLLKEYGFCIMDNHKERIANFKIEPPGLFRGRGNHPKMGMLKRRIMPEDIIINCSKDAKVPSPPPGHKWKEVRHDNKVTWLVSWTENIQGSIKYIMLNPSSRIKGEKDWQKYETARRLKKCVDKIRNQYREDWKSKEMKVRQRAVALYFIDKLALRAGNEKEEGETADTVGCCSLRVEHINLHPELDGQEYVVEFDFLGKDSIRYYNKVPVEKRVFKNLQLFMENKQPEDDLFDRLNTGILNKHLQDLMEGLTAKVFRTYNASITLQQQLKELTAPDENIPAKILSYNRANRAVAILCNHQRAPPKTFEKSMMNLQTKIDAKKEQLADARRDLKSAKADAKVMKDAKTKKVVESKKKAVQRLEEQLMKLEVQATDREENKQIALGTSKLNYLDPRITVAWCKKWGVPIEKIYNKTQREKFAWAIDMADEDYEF

CNE-2 [6] = experiment: Induction of cell cycle arrest in human CNE-2 cells assessed as accumulation of cells at G2 phase at 0.5 uM measured after 48 hrs by flow cytometry analysis (Rvb= 6.99%); assay type: functional
CNE-2 [7] = experiment: Induction of apoptosis in human CNE-2 cells assessed as late apoptotic cells at 2 uM measured after 24 hrs by annexin-V-FITC and PI staining based flow cytometry analysis (reference value: 3.79%); assay type: functional
MGC-803 [8] = experiment: Antiproliferative activity against human MGC-803 cells assessed as cell growth inhibition by MTT assay; assay type: functional, cell-based
MGC-803 [9] = experiment: Antitumor activity against human MGC-803 cells xenografted in nude mouse assessed as reduction in tumor weight at 4 mg/kg, ip administrated every other day for 21 days relative to control; assay type: functional; set-up: scale not given: the % may be the effect or the level left; settings: time 21 day
CNE-2 [10] = experiment: Induction of cell cycle arrest in human CNE-2 cells assessed as accumulation of cells at G1 phase at 2 uM measured after 48 hrs by flow cytometry analysis (Rvb= 73.18%); assay type: functional
CNE-2 [11] = experiment: Induction of cell cycle arrest in human CNE-2 cells assessed as accumulation of cells at S phase at 1 uM measured after 48 hrs by flow cytometry analysis (Rvb= 19.83%); assay type: functional
MGC-803 [12] = experiment: Antitumor activity against human MGC-803 cells xenografted in nude mouse assessed as reduction in tumor volume growth rate at 8 mg/kg, ip administrated every other day for 21 days relative to control; assay type: functional; set-up: scale not given: the % may be the effect or the level left; settings: time 21 day
CNE-2 [13] = experiment: Induction of apoptosis in human CNE-2 cells assessed as late apoptotic cells at 0.5 uM measured after 24 hrs by annexin-V-FITC and PI staining based flow cytometry analysis (reference value: 3.79%); assay type: functional
CNE-2 [14] = experiment: Induction of apoptosis in human CNE-2 cells at 0.5 to 2 uM by Hoechst 33258 staining based fluorescence microscopic analysis; assay type: functional, cell-based; settings: dose 0.5-2 µM
MGC-803 [15] = experiment: Toxicity in nude mouse xenografted with human MGC-803 cells assessed as morphological changes in liver at 8 mg/kg, ip administrated every other day for 21 days; assay type: functional, organism-based; settings: time 21.0 day
CNE-2 [16] = experiment: Induction of cell cycle arrest in human CNE-2 cells assessed as accumulation of cells at G2 phase at 1 uM measured after 48 hrs by flow cytometry analysis (Rvb= 6.99%); assay type: functional
CNE-2 [17] = experiment: Induction of apoptosis in human CNE-2 cells assessed as viable cells at 1 uM measured after 24 hrs by annexin-V-FITC and PI staining based flow cytometry analysis (reference value: 94.8%); assay type: functional; settings: read-out: Activity
CNE-2 [18] = experiment: Induction of cell cycle arrest in human CNE-2 cells assessed as accumulation of cells at G2 phase at 2 uM measured after 48 hrs by flow cytometry analysis (Rvb= 6.99%); assay type: functional
CNE-2 [19] = experiment: Downregulation of cyclin E level in human CNE-2 cells measured after 48 hrs by Western blot analysis; assay type: functional, cell-based; settings: dose <= 2.0 µM
CNE-2 [20] = experiment: Upregulation of p27 level in human CNE-2 cells measured after 48 hrs by Western blot analysis; assay type: functional, cell-based; settings: dose <= 2.0 µM
CNE-2 [21] = experiment: Induction of apoptosis in human CNE-2 cells assessed as late apoptotic cells at 1 uM measured after 24 hrs by annexin-V-FITC and PI staining based flow cytometry analysis (reference value: 3.79%); assay type: functional
CNE-2 [22] = experiment: Induction of cell cycle arrest in human CNE-2 cells assessed as accumulation of cells at G1 phase at 0.5 uM measured after 48 hrs by flow cytometry analysis (Rvb= 73.18%); assay type: functional
MGC-803 [23] = experiment: Antitumor activity against human MGC-803 cells xenografted in nude mouse assessed as reduction in tumor volume growth rate at 4 mg/kg, ip administrated every other day for 21 days relative to control; assay type: functional; set-up: scale not given: the % may be the effect or the level left; settings: time 21 day
MGC-803 [24] = experiment: Antitumor activity against human MGC-803 cells xenografted in nude mouse assessed as reduction in tumor weight at 8 mg/kg, ip administrated every other day for 21 days relative to control; assay type: functional; set-up: scale not given: the % may be the effect or the level left; settings: time 21 day
CNE-2 [25] = experiment: Downregulation of CDK2 level in human CNE-2 cells measured after 48 hrs by Western blot analysis; assay type: functional, cell-based; settings: dose <= 2.0 µM
Homo sapiens [26] = organism: Homo sapiens; experiment: Binding affinity to pBR322 DNA (unknown origin) assessed as DNA intercalation at 20 to 100 uM by electrophoresis assay; settings: dose 20-100 µM
Homo sapiens [27] = organism: Homo sapiens; experiment: Binding affinity to pBR322 DNA (unknown origin) assessed as induced retardation of DNA migration at 20 to 100 uM by gel electrophoresis assay; settings: dose 20-100 µM

| pIC50 (A2780) | inhibition [5] | pIC50 (MGC-803 [8]) | Structure (SMILES) | pIC50 (T-24) | Activity (CNE-2 [1]) | Activity (CNE-2 [2]) | Activity (CNE-2 [3]) | Activity (CNE-2 [4]) | Activity (CNE-2 [6]) | Activity (CNE-2 [7]) | Activity (MGC-803 [9]) | Activity (CNE-2 [10]) | Activity (CNE-2 [11]) | Activity (MGC-803 [12]) | Activity (CNE-2 [13]) | Activity (CNE-2 [14]) | Activity (MGC-803 [15]) | Activity (CNE-2 [16]) | viability at 1 µM (CNE-2 [17]) | Activity (CNE-2 [18]) | further results |
| --- | --- | --- | --- | --- | --- | --- | --- | --- | --- | --- | --- | --- | --- | --- | --- | --- | --- | --- | --- | --- | --- |
| 5.32 | Active | 5.81 | CN(C)CCN1C(=O)c2cccc3c(N4CCOCC4)c([N+](=O)[O-])cc(c23)C1=O | 5.81 | Dose-Dependent Effect | 35.62% | 1.91% | Active | 7.03% | 9.2% | 34.4% | 38.9% | 18.12% | 56.1% | 8.17% | Active | Toxic | 12.63% | 82.9% | 25.48% | Activity (CNE-2 [19]): Dose-Dependent Effect; Activity (CNE-2 [20]): Dose-Dependent Effect; Activity (CNE-2 [21]): 8.53%; Activity (CNE-2 [22]): 72.47%; Activity (MGC-803 [23]): 59.9%; Activity (MGC-803 [24]): 46.9%; Activity (CNE-2 [25]): Dose-Dependent Effect; Activity (Homo sapiens [26]): Active; Activity (Homo sapiens [27]): Active |
| 6.21 | Active | 7.05 | O=C1c2cccc3c(N4CCOCC4)c([N+](=O)[O-])cc(c23)C(=O)N1CCNCCN1C(=O)c2cccc3c(N4CCOCC4)c([N+](=O)[O-])cc(c23)C1=O | 5.91 | Dose-Dependent Effect | 49.01% | 13.9% | Active | 1.55% | 13.4% | 44.7% | 39.09% | 31.13% | 46% | 6.61% | Active | Toxic | 2.69% | 83.4% | 11.96% | Activity (CNE-2 [19]): Dose-Dependent Effect; Activity (CNE-2 [20]): Dose-Dependent Effect; Activity (CNE-2 [21]): 7.06%; Activity (CNE-2 [22]): 66.68%; Activity (MGC-803 [23]): 49.7%; Activity (MGC-803 [24]): 46%; Activity (CNE-2 [25]): Dose-Dependent Effect; Activity (Homo sapiens [26]): Active; Activity (Homo sapiens [27]): Active |
